Measurements published in patent US20230365559A1, “NOVEL AMINOPYRIDINES AND THEIR USE IN TREATING CANCER” (priority 2020, published 2023).

Key:
human PI3Kα (p110α/p85α) = human PI3Kα (p110α/p85α) (Homo sapiens, UniProt P42336); assay: Inhibition of PI3Kα kinase activity, ADP-Glo Assay (Reaction Biology); type: biochemical; conditions: 10 μM ATP; mean of two replicates; Table 12; read-out: Inhibition of kinase activity (as IC50) PICK
human mTOR = human mTOR (Homo sapiens, UniProt P42345); assay: Inhibition of mTOR kinase activity, HotSpot assay, phosphorylation of 4EPB1; conditions: Inhibition of kinase activity (as IC50) mTOR (nM), 10 μM ATP; mean of two replicates; Table 12
human DNA-PK = human DNA-PK (Homo sapiens, UniProt P78527); assay: Inhibition of DNA-PKcs kinase activity, HotSpot assay (Reaction Biology), [γ-33P]-ATP phosphorylation of peptide substrate; type: biochemical; conditions: 10 μM ATP, 10 μg/ml DNA; mean of two replicates; Table 12; read-out: Inhibition of kinase activity (as IC50) DNA-PK (converted)
UT-SCC-54C cells = assay: Radiosensitisation of UT-SCC-54C HNSCC cells, regrowth (sulforhodamine B) assay, oxic (Table 16); type: cell-based, human; conditions: for IC50: Homo sapiens, read-out: IC50; for S50: compound in combination with 3 Gy of radiation, 50% inhibition of regrowth fraction, UT-SCC-54C; for S50 / radiosensitisation / differential growth inhibition of UT-SCC-54C cells: oxic; for radiosensitisation / differential growth inhibition of UT-SCC-54C cells: 0 or 3 Gy, regrowth assay

Chain of human PI3Kα (p110α/p85α) (P42336 whole entry): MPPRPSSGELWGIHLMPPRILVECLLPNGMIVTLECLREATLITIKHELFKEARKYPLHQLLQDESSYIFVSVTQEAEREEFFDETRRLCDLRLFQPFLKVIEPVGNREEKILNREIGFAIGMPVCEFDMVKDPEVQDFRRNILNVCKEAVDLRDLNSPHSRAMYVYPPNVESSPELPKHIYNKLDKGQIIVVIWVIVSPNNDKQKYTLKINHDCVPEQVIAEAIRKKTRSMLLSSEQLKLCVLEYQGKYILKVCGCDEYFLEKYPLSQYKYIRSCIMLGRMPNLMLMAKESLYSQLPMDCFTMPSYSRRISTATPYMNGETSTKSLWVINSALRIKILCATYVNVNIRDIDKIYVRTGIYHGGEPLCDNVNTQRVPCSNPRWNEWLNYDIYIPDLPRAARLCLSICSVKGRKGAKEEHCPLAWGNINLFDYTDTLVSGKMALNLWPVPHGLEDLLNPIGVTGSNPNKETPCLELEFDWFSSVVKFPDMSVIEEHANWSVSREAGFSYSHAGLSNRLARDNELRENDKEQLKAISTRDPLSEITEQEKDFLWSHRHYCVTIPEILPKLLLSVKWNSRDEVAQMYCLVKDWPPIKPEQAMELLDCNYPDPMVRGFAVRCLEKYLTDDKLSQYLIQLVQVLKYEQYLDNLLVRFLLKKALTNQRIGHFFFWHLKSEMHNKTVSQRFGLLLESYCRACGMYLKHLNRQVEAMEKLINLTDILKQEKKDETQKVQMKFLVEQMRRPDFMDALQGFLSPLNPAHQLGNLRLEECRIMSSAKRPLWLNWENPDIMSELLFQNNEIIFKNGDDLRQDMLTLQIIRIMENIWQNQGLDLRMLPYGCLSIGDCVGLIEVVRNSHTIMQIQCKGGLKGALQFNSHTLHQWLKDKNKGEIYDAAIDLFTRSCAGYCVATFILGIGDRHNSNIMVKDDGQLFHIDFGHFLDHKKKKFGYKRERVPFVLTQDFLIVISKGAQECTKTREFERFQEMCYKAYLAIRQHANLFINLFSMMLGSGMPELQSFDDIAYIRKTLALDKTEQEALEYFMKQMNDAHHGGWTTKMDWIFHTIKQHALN
Chain of human PI3Kα (p110α/p85α) (P27986 whole entry partner): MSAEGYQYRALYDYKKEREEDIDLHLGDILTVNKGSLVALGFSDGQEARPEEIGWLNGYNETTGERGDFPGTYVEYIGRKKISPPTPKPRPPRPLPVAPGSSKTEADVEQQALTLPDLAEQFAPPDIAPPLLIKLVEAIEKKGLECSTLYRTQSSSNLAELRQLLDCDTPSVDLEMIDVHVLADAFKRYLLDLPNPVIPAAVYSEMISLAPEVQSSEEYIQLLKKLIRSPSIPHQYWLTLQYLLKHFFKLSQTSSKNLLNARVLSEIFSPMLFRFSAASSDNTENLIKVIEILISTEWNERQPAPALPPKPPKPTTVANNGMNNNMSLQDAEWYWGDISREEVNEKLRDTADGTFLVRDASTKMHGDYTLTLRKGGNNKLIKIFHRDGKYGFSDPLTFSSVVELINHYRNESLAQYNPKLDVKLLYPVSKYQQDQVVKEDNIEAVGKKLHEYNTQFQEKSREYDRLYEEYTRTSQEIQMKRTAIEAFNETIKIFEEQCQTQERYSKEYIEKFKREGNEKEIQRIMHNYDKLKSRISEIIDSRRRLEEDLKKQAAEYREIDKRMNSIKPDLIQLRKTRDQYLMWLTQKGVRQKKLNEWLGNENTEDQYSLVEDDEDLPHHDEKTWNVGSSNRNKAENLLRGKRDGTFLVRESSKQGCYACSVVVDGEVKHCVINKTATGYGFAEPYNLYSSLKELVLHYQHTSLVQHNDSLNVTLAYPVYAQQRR

SMILES	IC50 (human PI3Kα (p110α/p85α)) [µM]	IC50 (human mTOR) [nM]	IC50 (human DNA-PK) [nM]	IC50 (UT-SCC-54C cells) [µM]	S50 (UT-SCC-54C cells) [µM]	radiosensitisation / differential growth inhibition of UT-SCC-54C cells (UT-SCC-54C cells)
Cc1nc2cc(Nc3cc4c(cn3)n(C)c(=O)n4C3CCOCC3)c(C)cc2o1 [Compound 131, 6-((2,6-Dimethylbenzo[d]oxazol-5-yl)amino)-3-methyl-1-(tetrahydro-2H-pyran-4-yl)-1,3-dihydro-2H-imidazo[4,5-c]pyridin-2-one]	11	13400	47.7	> 10	4.8	
COc1cc(C)c(Nc2cc3c(cn2)n(C)c(=O)n3C2CCOCC2)cc1OC [Compound 216, 6-((4,5-Dimethoxy-2-methylphenyl)amino)-3-methyl-1-(tetrahydro-2H-pyran-4-yl)-1,3-dihydro-2H-imidazo[4,5-c]pyridin-2-one]	4.62	42700	390	> 10	7.4	
COc1ccc(N(C(=O)OCc2cnc([N+](=O)[O-])n2C)c2cc3c(cn2)n(C)c(=O)n3C2CCC(OC)CC2)c(C)c1 (stereo not shown) [Compound 258, (1-Methyl-2-nitro-1H-imidazol-5-yl)methyl (4-methoxy-2-methylphenyl)(1-(4-methoxycyclohexyl)-3-methyl-2-oxo-2,3-dihydro-1H-imidazo[4,5-c]pyridin-6-yl)carbamate]	39.2	> 100000	754	> 10	>10	did not display any differential growth inhibition
COc1ccc(-n2c(=O)n(C)c3cnc(Nc4ccc(O)cc4C)cc32)cc1 [Compound 200, 6-((4-Hydroxy-2-methylphenyl)amino)-1-(4-methoxyphenyl)-3-methyl-1,3-dihydro-2H-imidazo[4,5-c]pyridin-2-one]	0.264	19500	< 0.05	> 10	0.31	
Cc1cc(Cl)cnc1Nc1cc2c(cn1)n(C)c(=O)n2C1CCOCC1 [Compound 217, 6-((5-Chloro-3-methylpyridin-2-yl)amino)-3-methyl-1-(tetrahydro-2H-pyran-4-yl)-1,3-dihydro-2H-imidazo[4,5-c]pyridin-2-one]	33.1	76300	52	> 10	3.9	
Cc1ccc(S(C)(=O)=O)cc1Nc1cc2c(cn1)n(C)c(=O)n2C1CCOCC1 [Compound 123, 3-Methyl-6-((2-methyl-5-(methylsulfonyl)phenyl)amino)-1-(tetrahydro-2H-pyran-4-yl)-1,3-dihydro-2H-imidazo[4,5-c]pyridin-2-one]	0.678	> 100000	0.13	> 10	0.74	
Cc1cc2c(cc1Nc1cc3c(cn1)n(C)c(=O)n3C1CCOCC1)OCO2 [Compound 130, 3-Methyl-6-((6-methylbenzo[d][1,3]dioxol-5-yl)amino)-1-(tetrahydro-2H-pyran-4-yl)-1,3-dihydro-2H-imidazo[4,5-c]pyridin-2-one]	2.53	10800	3.05	> 10	0.50	
Cc1cc(Cl)ccc1N(C(=O)OCc1cnc([N+](=O)[O-])n1C)c1cc2c(cn1)n(C)c(=O)n2C1CCOCC1 [Compound 257, (1-Methyl-2-nitro-1H-imidazol-5-yl)methyl (4-chloro-2-methylphenyl)(3-methyl-2-oxo-1-(tetrahydro-2H-pyran-4-yl)-2,3-dihydro-1H-imidazo[4,5-c]pyridin-6-yl)carbamate]	> 100	> 100000	203	> 10	>10	did not display any differential growth inhibition
COc1cnc(Nc2cc3c(cn2)n(C)c(=O)n3C2CCOCC2)c(C)c1 [Compound 220, 6-((5-Methoxy-3-methylpyridin-2-yl)amino)-3-methyl-1-(tetrahydro-2H-pyran-4-yl)-1,3-dihydro-2H-imidazo[4,5-c]pyridin-2-one]	24	> 100000	170	> 10	4.4	
COc1ccc(N(C(=O)OCc2cnc([N+](=O)[O-])n2C)c2cc3c(cn2)n(C)c(=O)n3C2CCCC2)c(C)c1 [Compound 247, (1-Methyl-2-nitro-1H-imidazol-5-yl)methyl (1-cyclopentyl-3-methyl-2-oxo-2,3-dihydro-1H-imidazo[4,5-c]pyridin-6-yl)(4-methoxy-2-methylphenyl)carbamate]	> 10	> 100000	871	> 10	>10	did not display any differential growth inhibition
COc1ccc(Nc2cc3c(cn2)n(C)c(=O)n3C2CCC(NC(=O)OCc3cnc([N+](=O)[O-])n3C)CC2)c(C)c1 (stereo not shown) [Compound 253, (1-Methyl-2-nitro-1H-imidazol-5-yl)methyl (4-(6-((4-methoxy-2-methylphenyl)amino)-3-methyl-2-oxo-2,3-dihydro-1H-imidazo[4,5-c]pyridin-1-yl)cyclohexyl)carbamate]	0.296	11400	58			
COCCn1c(=O)n(C)c2cnc(Nc3ccc(Cl)cc3C)cc21 [Compound 105, 6-((4-Chloro-2-methylphenyl)amino)-1-(2-methoxyethyl)-3-methyl-1,3-dihydro-2H-imidazo[4,5-c]pyridin-2-one]	3.26	71400	12.1			
Cc1nc(Cl)ccc1Nc1cc2c(cn1)n(C)c(=O)n2C1CCOCC1 [Compound 219, 6-((6-Chloro-2-methylpyridin-3-yl)amino)-3-methyl-1-(tetrahydro-2H-pyran-4-yl)-1,3-dihydro-2H-imidazo[4,5-c]pyridin-2-one]	20.8	> 100000	270			
Cc1cc2nccnc2cc1Nc1cc2c(cn1)n(C)c(=O)n2C1CCOCC1 [Compound 225, 3-Methyl-6-((7-methylquinoxalin-6-yl)amino)-1-(tetrahydro-2H-pyran-4-yl)-1,3-dihydro-2H-imidazo[4,5-c]pyridin-2-one]	1.65	58500	3.4	> 10	0.27	
Cc1cc2ncc(C(=O)O)n2cc1Nc1cc2c(cn1)n(C)c(=O)n2C1CCOCC1 [Compound 136, 7-Methyl-6-((3-methyl-2-oxo-1-(tetrahydro-2H-pyran-4-yl)-2,3-dihydro-1H-imidazo[4,5-c]pyridin-6-yl)amino)imidazo[1,2-a]pyridine-3-carboxylic acid]	0.151	19600	3.6			
Cc1cc(Cl)ncc1Nc1cc2c(cn1)n(C)c(=O)n2C1CCOCC1 [Compound 218, 6-((6-Chloro-4-methylpyridin-3-yl)amino)-3-methyl-1-(tetrahydro-2H-pyran-4-yl)-1,3-dihydro-2H-imidazo[4,5-c]pyridin-2-one]	14.2	68400	94	> 10	3.1	
Cc1cc(Cl)ccc1Nc1cc2c(cn1)n(C)c(=O)n2CCC1CCOCC1 [Compound 147, 6-((4-Chloro-2-methylphenyl)amino)-3-methyl-1-(2-(tetrahydro-2H-pyran-4-yl)ethyl)-1,3-dihydro-2H-imidazo[4,5-c]pyridin-2-one]	0.49	7900	11	> 10	0.97	
Cc1nc2ccc(Nc3cc4c(cn3)n(C)c(=O)n4C3CCOCC3)cc2o1 [Compound 128, 3-Methyl-6-((2-methylbenzo[d]oxazol-6-yl)amino)-1-(tetrahydro-2H-pyran-4-yl)-1,3-dihydro-2H-imidazo[4,5-c]pyridin-2-one]	> 10	> 100000	1420			
COc1ccc(Nc2cc3c(cn2)n(C)c(=O)n3C2CCOCC2)c(C)n1 [Compound 221, 6-((6-Methoxy-2-methylpyridin-3-yl)amino)-3-methyl-1-(tetrahydro-2H-pyran-4-yl)-1,3-dihydro-2H-imidazo[4,5-c]pyridin-2-one]	9.36	> 100000	441			
COC1CCC(n2c(=O)n(C)c3cnc(Nc4ccc(Cl)cc4C)cc32)CC1 (stereo not shown) [Compound 173, 6-((4-Chloro-2-methylphenyl)amino)-1-(4-methoxycyclohexyl)-3-methyl-1,3-dihydro-2H-imidazo[4,5-c]pyridin-2-one]	2.17	27500	0.64	> 10	0.85	
